Reference: PubChem BioAssay (NCI)
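Each compound was tested at five concentrations against cells in 96-well plates for 48 hours. GI50 is the concentration that inhibits growth by half. At the TGI there is no net growth.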

What was measured:
Test in all cases: NCI anticancer screen, dose series, 48 h
CAKI-1 renal = tested on: CAKI-1 renal
HCT-15 colon = tested on: HCT-15 colon
K-562 leukemia = tested on: K-562 leukemia
LOX IMVI melanoma = tested on: LOX IMVI melanoma
PC-3 prostate = tested on: PC-3 prostate
SF-539 CNS = tested on: SF-539 CNS
SK-MEL-28 melanoma = tested on: SK-MEL-28 melanoma
SK-MEL-5 melanoma = tested on: SK-MEL-5 melanoma
SNB-75 CNS = tested on: SNB-75 CNS
UACC-62 melanoma = tested on: UACC-62 melanoma

SMILES | GI50 (CAKI-1 renal) [µM] | TGI (CAKI-1 renal) [µM] | GI50 (HCT-15 colon) [µM] | TGI (HCT-15 colon) [µM] | GI50 (K-562 leukemia) [µM] | TGI (K-562 leukemia) [µM] | GI50 (LOX IMVI melanoma) [µM] | TGI (LOX IMVI melanoma) [µM] | GI50 (PC-3 prostate) [µM] | TGI (PC-3 prostate) [µM] | GI50 (SF-539 CNS) [µM] | TGI (SF-539 CNS) [µM] | GI50 (SK-MEL-28 melanoma) [µM] | TGI (SK-MEL-28 melanoma) [µM] | GI50 (SK-MEL-5 melanoma) [µM] | TGI (SK-MEL-5 melanoma) [µM] | GI50 (SNB-75 CNS) [µM] | TGI (SNB-75 CNS) [µM] | GI50 (UACC-62 melanoma) [µM] | TGI (UACC-62 melanoma) [µM]
CS(=O)(=O)CCNCc1ccc(-c2ccc3ncnc(Nc4ccc(OCc5ccccc5)c(Br)c4)c3c2)o1 | 2.43 | > 25 | 4.51 | 14.7 | 7.72 | > 20.6 | 4.36 | 8.69 | 9.28 | > 25 | 5.41 | 13.2 | 4.5 | 9.08 | 3.44 | 6.71 | 10.1 | > 25 | 5.03 | 9.75
C=C1C(=O)OC2C1CCC(C)C1C=CC(=O)C12C (centres undefined) |  | 6.75 |  | 4.11 |  | 11.3 |  | 5.25 |  | 17.3 |  | 8.33 |  | 4.93 |  | 12 |  | 26.8 |  | 4.11
COc1ccc(-c2cc(-c3ccc(Cl)cc3)nc(SCCCC(=O)NO)n2)cc1 | 0.284 | 1.29 | 0.413 | 1.7 | 1.2 | > 100 | 0.153 | 1.32 | 0.874 | 3.61 | 1.36 | 3.78 | 1.69 | 5.47 | 1.59 | 3.31 | 1.22 | 5.61 | 0.853 | 2.22
O=c1cc(N2CCN(CCCCCOc3cc(O)c4c(=O)cc(-c5ccccc5)oc4c3)CC2)c2ccccc2o1 | > 100 | > 100 | > 100 | > 100 | 15.4 | > 100 | 51.2 | > 100 | 43.1 | > 100 | 35.6 | > 100 | 61.8 | > 100 | 28 | > 100 | > 100 | > 100 | 36.2 | > 100
O=C1CC(=O)N(C(=O)c2nn(-c3ccc(Cl)cc3)cc2O)N1 | 0.639 | 12.7 | 0.486 | > 100 | 0.292 | 8.15 | 1.15 | > 100 | 0.36 | > 100 | 0.371 | > 63 | 2.82 | > 100 | 1.69 | 12 | 0.242 | > 100 | 0.381 | 9.41
COc1cc(N2CCC(N3CCN(C)CC3)CC2)ccc1Nc1ncnc(Nc2ccccc2S(=O)(=O)C(C)C)n1 | 3.32 | 13 | 3.5 | > 46.5 | 10.6 | 73.7 | 2.28 | 7.62 | 5.33 | > 51.4 | 3.46 | 14.6 | 10.9 | 34.9 | 4.62 | 18.1 | 3.63 | 15.9 | 8.35 | 27.1
C/C(=N\Nc1cc(C)c2ccccc2n1)c1ccccn1 |  | 0.544 | < 0.0493 | 1.81 | 0.0865 | 1.5 | 0.0807 | 1.31 | 0.0821 | 4.5 | 0.0778 | 0.693 | 0.362 | 1.96 | 0.13 | 1.28 | 0.212 | 5.4 | 0.11 | 0.631
CCN(Cc1ccccc1)c1ccc(CO)c(Cl)c1 | 0.845 | 21.4 | 13.8 | > 100 | 2.69 | > 100 | 23.8 | > 100 | 18.2 | > 53.6 | 30.2 | > 100 | 29.2 | > 100 | 5.83 | 28.7 | 13.6 | 69.7 | 0.104 | 0.695
COc1ccc(-c2oc(=O)ccc2-c2cc(OC)c(OC)c(OC)c2)cc1O | 3.08 | > 80.8 | 0.769 | > 100 | 0.439 | > 100 | 1.65 | 45.3 | 0.963 | > 100 | 1.37 | > 29.9 | 8.85 | > 100 | 0.514 | 12.7 | 1.26 | > 100 | 1.23 | > 49.9
COc1ccc(-c2cc(-c3cccn3C)c(C#N)c(=O)[nH]2)cc1OC | > 100 | > 100 | > 100 | > 100 | > 100 | > 100 | > 100 | > 100 | > 100 | > 100 | 66.8 | > 100 | > 100 | > 100 | > 100 | > 100 | 24.2 | > 100 | 65.5 | > 100
